Assay results reported in patent US9783527B2, “Indazole ureas and method of use” (AbbVie Inc., priority 2014, dated 2017).
pIC50: −log10 of the molar value.

Target: human Nav1.7 (Homo sapiens (Human), UniProt Q15858)
Experiment: FRET-based membrane potential assay, recombinant human sodium channel Nav1.7
Type: cell-based
Conditions: HEK293 cells stably expressing recombinant human Nav1.7; depolarization with veratridine (EC80) + scorpion venom
Method: FRET-Based Membrane Potential Assays.
Recombinant, Human Sodium Channel, Nav1.7.
Two days prior to the experiment, frozen HEK293 cells stably expressing recombinant human Nav1.7 were quickly thawed and plated at 25,000 cells/well in growth medium [DMEM (Invitrogen #11965) with 10% HI FBS (Invitrogen #10082), 2 mM glutamine, 100 units/mL penicillin, 0.1 mg/mL streptomycin (PSG, Sigma #G1146), and 500 μg/mL Geneticin (Invitrogen #10131)] in black-walled, clear-bottom 384-well poly-D-lysine-coated assay plates (Greiner Bio-One, Frickenhausen, Germany) and incubated in a humidified 5% CO2 incubator at 37° C. On the day of the assay, medium was removed by aspiration, and cells were washed with assay buffer [HBSS (Invitrogen, Carlsbad, Calif.) containing 20 mM HEPES (Invitrogen, Carlsbad, Calif.)]. After washing, 30 μL assay buffer containing the fluorescent voltage-sensor probe CC2-DMPE (Invitrogen, Carlsbad, Calif.) at 20 μM and 0.01% pluronic F-127 (Invitrogen, Carlsbad, Calif.) was added to the cells. Cells were incubated for 40 minutes at room temperature in the dark. Following the incubation, the cells were washed and 30 μL assay buffer containing 2.5 μM DiSBAC2(3) substrate (Invitrogen, Carlsbad, Calif.) and 0.5 mM VABSC-1 (Invitrogen, Carlsbad, Calif.) was added to the cells. The cells were incubated for 90 minutes at room temperature in the dark. Fluorescence readings were made using a FLIPR®^TETRA (Molecular Devices, Sunnyvale Calif.) equipped with voltage-sensor probe optics. At the start of each experiment the optimal (EC80) concentration of depolarizing agent (veratridine) was determined by testing a dilution curve of assay buffer containing veratridine (Sigma-Aldrich, St. Louis, Mo.) and 1 mg/mL scorpion venom (SVqq, from Leiurus quinquestriatus; Sigma-Aldrich, St. Louis, Mo.). […] Test compounds in the daughter plate were diluted to (˜3×) solutions in assay buffer immediately before assaying. Using the FLIPR®^TETRA, 20 μL of the (3×) compound solutions were first added to the cells, then 20 μL of depolarizing solution (3×EC80 veratridine+SVqq) were added 3 minutes later to activate the channel. Changes in fluorescence were measured at wavelengths of 440-480 nm and 565-625 nm over the course of the experimental run. Membrane depolarization was expressed as a ratio of the maximum F440-480 nm/F565-625 nm reading above average baseline F440-480 nm/F565-625 nm reading. IC50 values were calculated from curve fits of the ratio data using a four-parameter logistic Hill equation (Accelrys Assay Explorer 3.3 Client, Accelrys, San Diego, Calif.) with percent inhibition plotted against compound concentration.

Sequence of human Nav1.7 (Q15858 whole entry): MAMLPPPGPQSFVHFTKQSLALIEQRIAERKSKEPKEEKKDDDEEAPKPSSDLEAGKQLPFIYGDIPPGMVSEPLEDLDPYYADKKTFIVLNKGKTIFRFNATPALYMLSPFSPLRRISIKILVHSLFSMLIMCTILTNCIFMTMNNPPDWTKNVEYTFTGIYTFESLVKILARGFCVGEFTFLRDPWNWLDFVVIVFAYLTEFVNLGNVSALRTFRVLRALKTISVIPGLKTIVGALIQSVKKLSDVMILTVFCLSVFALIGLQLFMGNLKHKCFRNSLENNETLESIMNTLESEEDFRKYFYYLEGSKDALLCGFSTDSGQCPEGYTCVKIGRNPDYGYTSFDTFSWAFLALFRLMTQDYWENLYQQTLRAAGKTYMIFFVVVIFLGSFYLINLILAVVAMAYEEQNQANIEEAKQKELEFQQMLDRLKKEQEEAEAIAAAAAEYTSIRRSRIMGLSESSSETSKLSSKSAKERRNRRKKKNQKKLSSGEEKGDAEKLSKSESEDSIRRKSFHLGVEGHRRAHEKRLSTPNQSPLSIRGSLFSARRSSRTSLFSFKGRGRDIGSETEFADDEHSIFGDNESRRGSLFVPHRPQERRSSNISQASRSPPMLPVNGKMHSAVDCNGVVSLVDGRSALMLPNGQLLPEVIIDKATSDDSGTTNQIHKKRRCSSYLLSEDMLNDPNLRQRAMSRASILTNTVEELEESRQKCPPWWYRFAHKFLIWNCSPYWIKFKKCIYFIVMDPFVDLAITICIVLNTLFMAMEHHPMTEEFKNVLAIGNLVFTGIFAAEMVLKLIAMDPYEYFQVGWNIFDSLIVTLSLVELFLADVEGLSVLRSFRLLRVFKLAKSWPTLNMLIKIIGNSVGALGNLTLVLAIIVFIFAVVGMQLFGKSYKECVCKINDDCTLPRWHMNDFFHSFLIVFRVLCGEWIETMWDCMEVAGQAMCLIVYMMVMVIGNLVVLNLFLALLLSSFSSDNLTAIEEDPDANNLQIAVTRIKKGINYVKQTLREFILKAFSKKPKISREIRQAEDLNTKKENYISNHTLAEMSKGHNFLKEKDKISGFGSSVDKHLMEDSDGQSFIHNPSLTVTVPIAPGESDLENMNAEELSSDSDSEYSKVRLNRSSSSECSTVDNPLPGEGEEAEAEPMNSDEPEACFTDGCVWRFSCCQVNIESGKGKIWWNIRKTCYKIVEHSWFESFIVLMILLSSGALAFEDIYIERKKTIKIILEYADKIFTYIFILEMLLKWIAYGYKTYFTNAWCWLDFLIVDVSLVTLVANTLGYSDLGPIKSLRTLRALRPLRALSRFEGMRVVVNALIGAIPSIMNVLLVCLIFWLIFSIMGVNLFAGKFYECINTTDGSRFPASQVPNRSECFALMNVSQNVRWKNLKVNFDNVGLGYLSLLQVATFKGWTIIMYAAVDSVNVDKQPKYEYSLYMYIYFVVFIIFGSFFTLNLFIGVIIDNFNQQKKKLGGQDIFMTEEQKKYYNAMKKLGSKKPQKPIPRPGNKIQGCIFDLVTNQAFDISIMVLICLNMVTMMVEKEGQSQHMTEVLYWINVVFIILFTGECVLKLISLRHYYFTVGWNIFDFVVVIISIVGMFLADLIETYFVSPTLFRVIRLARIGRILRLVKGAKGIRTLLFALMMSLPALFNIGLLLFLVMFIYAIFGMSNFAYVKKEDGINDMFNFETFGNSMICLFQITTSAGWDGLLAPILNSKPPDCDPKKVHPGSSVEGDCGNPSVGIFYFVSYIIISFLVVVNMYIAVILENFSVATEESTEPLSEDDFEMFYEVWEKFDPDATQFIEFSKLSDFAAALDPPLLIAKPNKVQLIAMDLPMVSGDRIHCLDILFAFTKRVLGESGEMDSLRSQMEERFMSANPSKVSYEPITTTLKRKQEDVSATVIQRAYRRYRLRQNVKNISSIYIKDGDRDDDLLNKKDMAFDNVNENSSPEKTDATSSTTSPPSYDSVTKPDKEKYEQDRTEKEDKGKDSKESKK

Compound | pIC50
O=C(CN1CCN(c2cccc3c2cnn3-c2ccccc2F)C1=O)N1C[C@@H]2[C@@H]3CC[C@@H](C3)[C@@H]2C1 [Example 111, 1-[1-(2-fluorophenyl)-1H-indazol-4-yl]-3-{2-[(3aR,4R,7S,7aS)-octahydro-2H-4,7-methanoisoindol-2-yl]-2-oxoethyl}imidazolidin-2-one] | 6.08
O=C(CN1CCN(c2cccc3c2cnn3-c2ccccn2)C1=O)N1CCCC1 [Example 278, 1-[2-oxo-2-(pyrrolidin-1-yl)ethyl]-3-[1-(pyridin-2-yl)-1H-indazol-4-yl]imidazolidin-2-one] | 5.24
CC(C)C[C@](C)(O)CN1CCN(c2cccc3c2cnn3-c2ccccc2F)C1=O [Example 168, 1-[1-(2-fluorophenyl)-1H-indazol-4-yl]-3-[(2S)-2-hydroxy-2,4-dimethylpentyl]imidazolidin-2-one] | 6.09
O=C1N(Cc2ncco2)CCCN1c1cccc2c1cnn2-c1ccccc1F [Example 255, 1-[1-(2-fluorophenyl)-1H-indazol-4-yl]-3-(1,3-oxazol-2-ylmethyl)tetrahydropyrimidin-2(1H)-one] | 5.26
O=C(OC1CCCCC1)N1CCN(c2cccc3c2cnn3-c2ccccc2F)C1=O [Example 131, cyclohexyl 3-[1-(2-fluorophenyl)-1H-indazol-4-yl]-2-oxoimidazolidine-1-carboxylate] | 6.54
CC(C)c1cc(CN2CCN(c3cccc4c3cnn4-c3ccccc3F)C2=O)on1 [Example 249, 1-[1-(2-fluorophenyl)-1H-indazol-4-yl]-3-[(3-isopropyl-1,2-oxazol-5-yl)methyl]imidazolidin-2-one] | 5.61
O=C1N(c2cccc3c2cnn3-c2ccccc2F)CCN1S(=O)(=O)c1cccs1 [Example 79, 1-[1-(2-fluorophenyl)-1H-indazol-4-yl]-3-(2-thienylsulfonyl)imidazolidin-2-one] | 5.64
C=CCCC(C)(O)CN1CCN(c2cccc3c2cnn3-c2ccccc2F)C1=O (stereo not drawn) [Example 146, 1-[1-(2-fluorophenyl)-1H-indazol-4-yl]-3-(2-hydroxy-2-methylhex-5-en-1-yl)imidazolidin-2-one] | 5.51
CC(C)OCC(=O)N1CCN(c2cccc3c2cnn3-c2ccccc2F)C1=O [Example 96, 1-[1-(2-fluorophenyl)-1H-indazol-4-yl]-3-(isopropoxyacetyl)imidazolidin-2-one] | 5.79
C[C@@H]1COCCN1C(=O)CN1CCN(c2cccc3c2cnn3-c2ccccc2F)C1=O [Example 113, 1-[1-(2-fluorophenyl)-1H-indazol-4-yl]-3-{2-[(3R)-3-methylmorpholin-4-yl]-2-oxoethyl}imidazolidin-2-one] | 5.64
CC(C)C(O)CN1CCN(c2cccc3c2cnn3-c2ccccc2F)C1=O (stereo not drawn) [Example 163, 1-[1-(2-fluorophenyl)-1H-indazol-4-yl]-3-(2-hydroxy-3-methylbutyl)imidazolidin-2-one] | 5.67
C[C@H]1CCN(C(=O)CN2CCN(c3cccc4c3cnn4-c3ccccc3F)C2=O)C1 [Example 90, 1-[1-(2-fluorophenyl)-1H-indazol-4-yl]-3-{2-[(3S)-3-methylpyrrolidin-1-yl]-2-oxoethyl}imidazolidin-2-one] | 5.76
O=C(CN1CCN(c2cccc3c2cnn3-c2ccccc2F)C1=O)N1CCN2CCC[C@H]2C1 [Example 99, 1-[1-(2-fluorophenyl)-1H-indazol-4-yl]-3-{2-[(8aS)-hexahydropyrrolo[1,2-c]pyrazin-2(1H)-yl]-2-oxoethyl}imidazolidin-2-one] | 6.32
Cc1cncc(CN2CCCN(c3cccc4c3cnn4-c3ccccc3F)C2=O)n1 [Example 259, 1-[1-(2-fluorophenyl)-1H-indazol-4-yl]-3-[(6-methylpyrazin-2-yl)methyl]tetrahydropyrimidin-2(1H)-one] | 5.47
O=C1N(c2cccc3c2cnn3-c2ccccc2F)CCN1[C@@H]1CCCC[C@H]1O [Example 273, 1-[1-(2-fluorophenyl)-1H-indazol-4-yl]-3-[(1R,2R)-2-hydroxycyclohexyl]imidazolidin-2-one] | 5.31
O=C1N(c2cccc3c2cnn3-c2ccccc2F)CCN1C1CNC1 [Example 268, 1-(azetidin-3-yl)-3-[1-(2-fluorophenyl)-1H-indazol-4-yl]imidazolidin-2-one] | 4.82
CN(CC1CCOCC1)C(=O)CN1CCN(c2cccc3c2cnn3-c2ccccc2F)C1=O [Example 68, 2-{3-[1-(2-fluorophenyl)-1H-indazol-4-yl]-2-oxoimidazolidin-1-yl}-N-methyl-N-(tetrahydro-2H-pyran-4-ylmethyl)acetamide] | 5.45
O=C1N(Cc2cc(F)ccc2F)CCN1c1cccc2c1cnn2-c1ccccc1F [Example 197, 1-(2,5-difluorobenzyl)-3-[1-(2-fluorophenyl)-1H-indazol-4-yl]imidazolidin-2-one] | 5.67
C[C@@]1(c2cccc(F)c2)C[C@@H](N2CCN(c3cccc4c3cnn4-c3ccccc3F)C2=O)CO1 [Example 203, 2,5-anhydro-1,3,4-trideoxy-2-(3-fluorophenyl)-4-{3-[1-(2-fluorophenyl)-1H-indazol-4-yl]-2-oxoimidazolidin-1-yl}-L-threo-pentitol] | 5.44
CCOC(=O)/C=C\N1CCN(c2cccc3c2cnn3-c2ccccc2F)C1=O [Example 287, ethyl (2Z)-3-{3-[1-(2-fluorophenyl)-1H-indazol-4-yl]-2-oxoimidazolidin-1-yl}acrylate] | 5.24
Cc1noc(C)c1CN1CCCN(c2cccc3c2cnn3-c2ccccc2F)C1=O [Example 258, 1-[(3,5-dimethyl-1,2-oxazol-4-yl)methyl]-3-[1-(2-fluorophenyl)-1H-indazol-4-yl]tetrahydropyrimidin-2(1H)-one] | 4.96
O=C(CN1CCN(c2cccc3c2cnn3-c2ccccc2F)C1=O)N1CC(F)(F)C1 [Example 91, 1-[2-(3,3-difluoroazetidin-1-yl)-2-oxoethyl]-3-[1-(2-fluorophenyl)-1H-indazol-4-yl]imidazolidin-2-one] | 5.76
O=C(CN1CCN(c2cccc3c2cnn3-c2ccccc2F)C1=O)NCC1CC1 [Example 209, N-(cyclopropylmethyl)-2-{3-[1-(2-fluorophenyl)-1H-indazol-4-yl]-2-oxoimidazolidin-1-yl}acetamide] | 5.97
NC(=O)C(=O)N1CC(N2CCN(c3cccc4c3cnn4-c3ccccc3F)C2=O)C1 [Example 270, 2-(3-{3-[1-(2-fluorophenyl)-1H-indazol-4-yl]-2-oxoimidazolidin-1-yl}azetidin-1-yl)-2-oxoacetamide] | 5.23
C[C@@H]1CN(c2cccc3c2cnn3-c2ccccc2F)C(=O)N1C(=O)OC(C)(C)C [Example 241, tert-butyl (5R)-3-[1-(2-fluorophenyl)-1H-indazol-4-yl]-5-methyl-2-oxoimidazolidine-1-carboxylate] | 5.63
CC(C)c1cnc(CN2CCN(c3cccc4c3cnn4-c3ccccc3F)C2=O)o1 [Example 237, 1-[1-(2-fluorophenyl)-1H-indazol-4-yl]-3-[(5-isopropyl-1,3-oxazol-2-yl)methyl]imidazolidin-2-one] | 6.18
O=C1N(CC(=O)N2C[C@@H](O)C[C@@H]2c2cc(F)ccc2F)CCN1c1cccc2c1cnn2-c1ccccc1F [Example 122, 1-{2-[(2R,4S)-2-(2,5-difluorophenyl)-4-hydroxypyrrolidin-1-yl]-2-oxoethyl}-3-[1-(2-fluorophenyl)-1H-indazol-4-yl]imidazolidin-2-one] | 5.64
O=C1N(CC(O)C2CCC2)CCN1c1cccc2c1cnn2-c1ccccc1F (stereo not drawn) [Example 165, 1-(2-cyclobutyl-2-hydroxyethyl)-3-[1-(2-fluorophenyl)-1H-indazol-4-yl]imidazolidin-2-one] | 6.17
CC(C)[C@@H]1CCCN1C(=O)CN1CCN(c2cccc3c2cnn3-c2ccccc2F)C1=O [Example 125, 1-[1-(2-fluorophenyl)-1H-indazol-4-yl]-3-{2-[(2S)-2-isopropylpyrrolidin-1-yl]-2-oxoethyl}imidazolidin-2-one] | 5.85
O=C1N(CC2(OCc3ccccc3)CC2)CCN1c1cccc2c1cnn2-c1ccccc1F [Example 229, 1-{[1-(benzyloxy)cyclopropyl]methyl}-3-[1-(2-fluorophenyl)-1H-indazol-4-yl]imidazolidin-2-one] | 5.04
